The source of these data is article PMC10675526, “Development of a Novel Peptide with Antimicrobial and Mineralising Properties for Caries Management” (Pharmaceutics, 2023).

Bridge positions count the residues as written; N and C are the ends. Peptide text beside a SMILES is read from it. * marks the point of attachment. Galloyl = O=C(c1cc(O)c(O)c(O)c1)*

The nature of data set [1]: Mineralising effects on enamel blocks after pH cycling (SEM-EDS, Micro-CT, XRD). Also noted: species or system human. The conditions noted are these: sound enamel treated twice daily with 160 μM, n = 8 per group, mean ± SD; for Calcium-to-phosphate molar ratio: 8 days pH cycling (16 h pH 4.5, 8 h pH 7.0), SEM-EDS; for Mineral loss / Lesion depth: 8 days pH cycling, Micro-CT; for Mineral loss: MDV control area − MDV demineralised area. The procedure: A total of 40 enamel blocks were prepared from extracted sound human molars. The pH-cycling procedure (16 h demineralisation at pH 4.5 and 8 h remineralisation at pH 7.0) was performed on enamel blocks for 8 days, using solutions that contained calcium and phosphate. The enamel blocks from the same tooth were treated twice daily with 160 μM GAPI (GAPI Group), 160 μM GA (GA Group), 160 μM PI (PI Group) and sterile deionised water (Water Group). The structure of the enamel surface was examined using SEM (n = 8 per group). The elemental analysis of enamel surface was conducted using affiliated energy-dispersive X-ray spectroscopy (EDS). The calcium-to-phosphorus molar ratio was calculated.
The mineral loss and lesion depth on the enamel blocks were assessed using microcomputed tomography (Micro-CT) (1172, SkyScan, Antwerp, Belgium) (n = 8 per group). The parameters of Micro-CT were 80 kV voltage and 100 μA current with a voxel size of 12 μm^3. The image was reconstructed with NRecon software 1.7.4.6 (SkyScan, Antwerp, Belgium) and analysed using CTAn 1.20.3.0 (SkyScan, Antwerp, Belgium) to determine the lesion depth and mineral density values (MDVs, gHApcm^−3). The mineral loss = MDV of the control area − MDV of the demineralised area.
The diffraction patterns of the enamel blocks were evaluated using X-ray diffraction analysis (XRD) (Rigaku SmartLab 9 kW, […]) (n = 2 per group).

Data set [2] deals with S. mutans in three-species biofilm. The data set can be described thus: Growth kinetics of multiple-species biofilm, PMA-qPCR. It is filed as cell-based, Streptococcus mutans. Here is the method:
A multiple-species cariogenic biofilm consisting of S. mutans, L. casei and C. albicans was cultured following a previous protocol. The architecture of the multiple-species biofilm with or without GAPI treatment was assessed using scanning electron microscopy (SEM) and confocal laser scanning microscopy (CLSM). Propidium iodide and […] (DAPI), which highlight bacterial cells, and Concanavalin A (ConA), which labels C. albicans, were used to stain the multiple-species biofilm. The growth kinetics of the multiple-species biofilm were analysed using propidium monoazide–quantitative polymerase chain reaction (PMA-qPCR) (Supplementary Material S1).

Data set [3] in a line: Stability in human saliva (HPLC). It is filed as in vitro ADME. The conditions noted are these: 37 °C. The procedure: The stability of peptides in human saliva (collected from six individual healthy volunteers; three males and three females; minimum age, 29; and maximum age, 36) was investigated by testing the remaining peptide concentration via HPLC system (Waters Pacific Pte Ltd., Singapore). The test was processed following a previous experimental protocol. After centrifuging the saliva and collecting the supernatant, GAPI was added to the sample and incubated at 37 °C for 60 min. A 1 mL sample was taken and analysed using HPLC system.

In the case of `CC(C)[C@@H]1NC(=O)[C@H](CCCNC(=N)N)NC(=O)[C@H](Cc2ccccc2)NC(=O)[C@@H](NC(=O)[C@H](Cc2c[nH]c3ccccc23)NC(=O)[C@H](CCCNC(=N)N)NC(=O)[C@H](CCCNC(=N)N)NC(=O)c2cc(O)c(O)c(O)c2)CSSC[C@@H](C(=O)N[C@@H](CCCNC(=N)N)C(=O)O)NC(=O)[C@H](CCCCN)NC(=O)[C@H](CCCNC(=N)N)NC(=O)[C@H](Cc2ccc(O)cc2)NC(=O)[C@@H]2CSSC[C@H](NC1=O)C(=O)N[C@@H](Cc1ccc(O)cc1)C(=O)N[C@@H](CCCNC(=N)N)C(=O)NCC(=O)N[C@@H](Cc1ccccc1)C(=O)N2` [GAPI, Gallic-Acid-Polyphemusin-I] (Galloyl-RRWCFRVCYRGFCYRKCR-OH; disulfide 4-17, 8-13; C-terminus assumed), in data set [1], the Calcium-to-phosphate molar ratio is 1.81 ± 0.05, the Mineral loss stood at 0.89 ± 0.20 gHApcm^−3 and the Lesion depth came to 64 ± 7 µm. The “reduction of S. mutans in biofilm versus untreated” value in data set [2] is “more than 10 fold”.

On to `CC(C)[C@@H]1NC(=O)[C@H](CCCNC(=N)N)NC(=O)[C@H](Cc2ccccc2)NC(=O)[C@@H](NC(=O)[C@H](Cc2c[nH]c3ccccc23)NC(=O)[C@H](CCCNC(=N)N)NC(=O)[C@@H](N)CCCNC(=N)N)CSSC[C@@H](C(=O)N[C@@H](CCCNC(=N)N)C(=O)O)NC(=O)[C@H](CCCCN)NC(=O)[C@H](CCCNC(=N)N)NC(=O)[C@H](Cc2ccc(O)cc2)NC(=O)[C@@H]2CSSC[C@H](NC1=O)C(=O)N[C@@H](Cc1ccc(O)cc1)C(=O)N[C@@H](CCCNC(=N)N)C(=O)NCC(=O)N[C@@H](Cc1ccccc1)C(=O)N2` [PI, Polyphemusin I] (H-RRWCFRVCYRGFCYRKCR-OH; disulfide 4-17, 8-13; N-terminus and C-terminus assumed), for which, in data set [1], the Calcium-to-phosphate molar ratio amounted to 1.70 ± 0.06, the Mineral loss is given as 1.32 ± 0.26 gHApcm^−3 and the Lesion depth is 96 ± 9 µm.

Regarding `CC(C)[C@@H]1NC(=O)[C@H](CCCN=C(N)N)NC(=O)[C@H](Cc2ccccc2)NC(=O)[C@@H](NC(=O)[C@H](Cc2c[nH]c3ccccc23)NC(=O)[C@H](CCCN=C(N)N)NC(=O)[C@H](CCCN=C(N)N)NC(=O)c2cc(O)c(O)c(O)c2)CSSC[C@@H](C(=O)N[C@@H](CCCN=C(N)N)C(=O)O)NC(=O)[C@H](CCCCN)NC(=O)[C@H](CCCN=C(N)N)NC(=O)[C@H](Cc2ccc(O)cc2)NC(=O)[C@@H]2CSSC[C@H](NC1=O)C(=O)N[C@@H](Cc1ccc(O)cc1)C(=O)N[C@@H](CCCN=C(N)N)C(=O)NCC(=O)N[C@@H](Cc1ccccc1)C(=O)N2` [GAPI, Gallic-Acid-Polyphemusin-I] (Galloyl-RRWCFRVCYRGFCYRKCR-OH; disulfide 4-17, 8-13), the “time stable in saliva” value in data set [3] is listed as “at least 60 min”.

Turning to `O=C(O)c1cc(O)c(O)c(O)c1` [GA, gallic acid], in data set [1], the Calcium-to-phosphate molar ratio turned out to be 1.82 ± 0.08, the Mineral loss was 0.88 ± 0.24 gHApcm^−3 and the Lesion depth is given as 62 ± 12 µm.
